In general, Ki refers to a measure of affinity in units of concentration, obtained from inhibition or displacement.

A value given as a limit tells only on which side of the number the result lay.

In one assay the target is chymotrypsin (Bos taurus, UniProt P00766). The conditions noted are these: literature; cited from earlier work.
The next assay concerns rats. The experiment in a line: Survival after thrombin infusion following oral dosing. It counts as in vivo. The settings on record: 5 mg/kg orally in water; 500 units/kg thrombin infused thirty to sixty minutes later; water controls: all fourteen died. From the text:
Thirty to sixty minutes later, all rats received an infusion of 500 units/kg thrombin over a period of one minute. All fourteen rats given only water died within ten minutes of the thrombin infusion. In contrast only 8 out of 17 rats treated with the inhibitor-containing water died within ten minutes, and the remainder survived one hour, at which time they were euthanized.

The test system of a further assay is normal rabbit plasma. The experiment in a line: Thrombin times (TT), blood coagulation in vitro. It counts as biochemical. The conditions noted are these: thrombin 4 μ/ml. As for the experimental part:
A mixture of 0.2 ml of normal rabbit plasma and 0.05 ml of buffer containing the inhibitor at 6 times the desired final concentration was warmed to 37° C. Clotting was initiated by addition of thrombin (0.05 ml at 6 times the final concentration). The thrombin used was purchased from Sigma Chemical Company (No. T-6634, activity 1190 NIH units per mg protein) and prepared in buffer. The buffer employed for both the inhibitor and the thrombin was 0.1 M Tris buffer (12.10 g/L), containing 0.154 M NaCl (8.84 g/L) and 2.5 mg/ml bovine serum albumin, pH 7.4. The clotting times, measured in seconds, were determined using a fibrometer. The effects of the inhibitor on blood clotting times compared with the blood clotting times of controls run in the absence of inhibitors, are shown in Table 6. Values represent the average of at least three determinations.

A further assay deals with Male Lewis rats. The experiment in a line: In Vivo Inhibition of Blood Coagulation Following Oral, Colonic and Rectal Administration. The conditions noted are these: mean for 3 rats. As for the experimental part: Male Lewis rats weighing between 300-350 g were anesthetized with sodium pentobarbitol (50 mg/kg, i.p.) and the jugular vein was cannulated using a silastic tubing attached to a polyethylene 50 tubing. The tubing was exteriorized at the back of the neck and attached to a syringe through a stop cock. […] The blood samples were then transferred into vacutainers containing citrate buffer. Also, after each collection the cannula was flushed with saline. The blood samples were then centrifuged immediately (2500 rpm for 15 min) and 0.2 ml of the plasma samples were used for clotting time measurements. The clotting time measurements were carried out using a fibrometer as follows. First, plasma (0.2 ml) was placed in a fibro cup, and pH 7.4 Tris buffer (50 microliters) was added. The plasma buffer solution was incubated at 37° C. for 1 min, 50 microters of a 24 μ/ml thrombin solution in Tris buffer was then added, and clotting time in seconds was measured. When clotting time exceeded 300 seconds, it is reported below as >300.
The jugular vein-cannulated rats were allowed to recover from anesthesia before they were dosed orally. The protease inhibitor Ac-(D)Phe-Pro-boroArg--OH aqueous solution, consisting of 3 mg of inhibitor per kg weight of rat (approximately 1 mg/rat) in a volume of 0.75 ml of water per kg of rat, was administered by gavage.
A 3 cm incision was made in the abdomen of the jugular vein-cannulated rats while they were still under anesthesia. The colon was located and was tied off at both the beginning and the end. The protease inhibitor Ac-(D)Phe-Pro-boroArg--OH aqueous solution, consisting of 3 mg of inhibitor per kg weight of rat (approximately 1 mg/rat) in a volume of 1 ml of water per kg weight of rat, was injected at the beginning into the colon cavity. The incision was closed using wound clips.
The procedure for rectal administration in the jugular vein-cannulated rats was as described by Kamiya et al., J. Pharm. Sci., 71: 621 (1982). In brief, a device was made consisting of a 0.89 cm and a 0.71 cm silicon rubber septa connected by a 2 cm length of wire. This device was inserted into the rectum of the rat, the large septum first, and glued to the annus using suitable glue. Dosing was accomplished by injection through the exposed septum. The rectal dose was 3 mg of the protease inhibitor Ac-(D)Phe-Pro-boroArg--OH per kg weight of rat (approximately 1 mg/rat) in a volume of 0.6 ml of water per kg of rat.

The next assay deals with Sprague Dawley CD Rats. Nature of the assay: Inhibition of Blood Coagulation Following In Vivo Oral Dosing (thrombin times of plasma). On the procedure: Male rats (Sprague Dawley CD Rats, 130-140 g, supplied by Charles River Labs, Inc., Wilmington, MA) were anesthetized with sodium pentobarbital (50 mg/kg, i.p.). A midline incision was made on the ventral surface of the neck, and a polyethylene catheter was inserted in one of the carotid arteries and exteriorized at the back of the neck. After recovery from anesthesia, control blood samples were taken from the carotid artery catheter, anticoagulated with sodium citrate, and centrifuged (2000×g, 10 minutes). Plasma was transferred to plastic tubes and kept on ice until it was assayed. Thrombin times were measured using a fibrometer, as described in Examples 125-127.
The vehicle employed was 5% dimethylsulfoxide in saline. Blood samples were taken at various times after oral dosing and assayed as described above. When clotting time exceeded 300 seconds, it is reported below as >300.

As to `CC(=O)N[C@@H](Cc1ccccc1)B(O)O` [(R)-1-acetamido-2-phenylethane boronic acid], the Ki on chymotrypsin was 4 µM.

In the case of `CC(=O)N[C@H](Cc1ccccc1)C(=O)N1CCC[C@H]1C(=O)N[C@@H](CCCN=C(N)N)B(O)O.Cl` [Ac-(D)Phe-Pro-boroArg-OH, Ac-(D)Phe-Pro-boroArg-OH.HCl], in the assay on rats, the “rats died within ten minutes of the thrombin infusion” value is 8 out of 17. Also, the “Thrombin Times” value in the assay with normal rabbit plasma (inhibitor 50 nM, mean ± standard deviation) is 32.7 ± 0.8 s; in the assay with normal rabbit plasma (inhibitor 100 nM, mean ± standard deviation), 62.4 ± 7.2 s; with normal rabbit plasma (inhibitor 150 nM, terminated at 300 seconds) it was greater than 300 s. The Clotting Time is 59.4 s in the assay with Male Lewis rats (colonic 3 mg/kg, 0.0 hr); greater than 300 s in the assay on Male Lewis rats (colonic 3 mg/kg, 0.5 hr); greater than 300 s in the assay on Male Lewis rats (colonic 3 mg/kg, 1.0 hr); greater than 300 s in the assay on Male Lewis rats (colonic 3 mg/kg, 2.0 hr); greater than 300 s in the assay on Male Lewis rats (colonic 3 mg/kg, 4.0 hr); greater than 300 s in the assay on Male Lewis rats (colonic 3 mg/kg, 5.0 hr). The Clotting Time was 57.3 s in the assay on Male Lewis rats (oral 3 mg/kg, 0.00 hr); greater than 300 s in the assay with Male Lewis rats (oral 3 mg/kg, 0.25 hr); greater than 300 s in the assay with Male Lewis rats (oral 3 mg/kg, 0.50 hr); greater than 300 s in the assay on Male Lewis rats (oral 3 mg/kg, 1.00 hr); greater than 300 s in the assay on Male Lewis rats (oral 3 mg/kg, 2.00 hr); greater than 300 s in the assay with Male Lewis rats (oral 3 mg/kg, 3.00 hr). Also, the Clotting Time in the assay with Male Lewis rats (oral 3 mg/kg, 4.00 hr) is greater than 300 s; with Male Lewis rats (rectal 3 mg/kg, 0 hr) it was 66.4 s; in the assay on Male Lewis rats (rectal 3 mg/kg, 0.25 hr), greater than 300 s; with Male Lewis rats (rectal 3 mg/kg, 0.5 hr), greater than 300 s; in the assay with Male Lewis rats (rectal 3 mg/kg, 1.0 hr), greater than 300 s; in the assay on Male Lewis rats (rectal 3 mg/kg, 2.0 hr), greater than 300 s. Besides, in the assay with Male Lewis rats (rectal 3 mg/kg, 4.0 hr), the Clotting Time is greater than 300 s. Moreover, the “clotting times (thrombin times)” value in the assay on Sprague Dawley CD Rats (oral gavage 1 mg, 1 hr) is greater than 300 s; in the assay with Sprague Dawley CD Rats (oral gavage 1 mg, 2 hr), greater than 300 s; in the assay on Sprague Dawley CD Rats (oral gavage 1 mg, 3 hr) it was greater than 300 s; with Sprague Dawley CD Rats (oral gavage 1 mg, 4 hr, mean ± standard deviation) it was 47 ± 4 s; in the assay on Sprague Dawley CD Rats (oral gavage 1 mg, 6 hr, mean ± standard deviation) it was 46 ± 3 s; in the assay on Sprague Dawley CD Rats (oral gavage 1 mg, .5 hr) it was greater than 300 s. The “clotting times (thrombin times)” value is 54 ± 29 s in the assay on Sprague Dawley CD Rats (oral gavage 2 mg, 4 hr, mean ± standard deviation); 44 ± 4 s in the assay with Sprague Dawley CD Rats (oral gavage 2 mg, 6 hr, mean ± standard deviation); greater than 300 s in the assay on Sprague Dawley CD Rats (oral gavage 2 mg, .5 hr); greater than 300 s in the assay on Sprague Dawley CD Rats (oral gavage 10 mg, 1 hr); greater than 300 s with Sprague Dawley CD Rats (oral gavage 10 mg, 2 hr); greater than 300 s in the assay with Sprague Dawley CD Rats (oral gavage 10 mg, 3 hr). Also, the “clotting times (thrombin times)” value in the assay with Sprague Dawley CD Rats (oral gavage 10 mg, .5 hr) was greater than 300 s.

The values above are taken from patent US5187157A, “Peptide boronic acid inhibitors of trypsin-like proteases” (Du Pont Merck Pharmaceutical Company, priority 1988, dated 1993).
